Among the data in patent US20070232615A1, “Chemical Compounds” (priority 2004, published 2007) are IC50 values, retold here.

In the test the test system is HIV. The test is described as follows: HOS HIV infectivity assay (Table 2, strain not given). The class given is cell-based. As to conditions: Human immunodeficiency virus 1, read-out: Activity Level. The method, then: HOS HIV-1 Infectivity Assay
Compounds were profiled against two HIV-1 viruses, the M-tropic (CCR5 utilizing) Ba-L strain and the T-tropic (CXCR4 utilizing) IIIB strain. Both viruses were propagated in human peripheral blood lymphocytes. Compounds were tested for there ability to block infection of the HOS cell line (expressing hCXCR4/hCCR5/hCD4/pHIV-LTR-luciferase) by either HIV-1 Ba-L or HIV-1 IIIB. Compound cytotoxicity was also examined in the absence of virus addition.
HOS HIV-1 Infectivity Assay Format
HOS cells (expressing hCXCR4/hCCR5/hCD4/pHIV-LTR-luciferase) were harvested and diluted in Dulbeccos modified Eagles media supplemented with 2% FCS and non-essential amino acid to a concentration of 60,000 cells/ml. The cells were plated into 96-well plates (100 ul per well) and the plates were placed in a tissue culture incubator (37° C.; 5% CO2/95% air) for a period of 24 h.
Subsequently, 50 ul of the desired drug solution (4 times the final concentration) was added to each well and the plates were returned to the tissue culture incubator (37° C.; 5% CO2/95% air) for 1 h. Following this incubation 50 ul of diluted virus was added to each well (approximately 2 million RLU per well of virus). The plates were returned to the tissue culture incubator (37° C.; 5% CO2/95% air) and were incubated for a further 96 h.
Following this incubation the endpoint for the virally infected cultures was quantified following addition of Steady-Glo Luciferase assay system reagent (Promega, Madison, Wis.). Cell viability or non-infected cultures was measured using a CellTiter-Glo luminescent cell viability assay system (Promega, Madison, Wis.). All luminescent readouts are performed on a Topcount luminescence detector (Packard, Meridien, Conn.).

Turning to `CN(C)[C@H]1CCN(c2cccc3nc(CN(C)[C@H]4CCCc5cccnc54)cn23)C1` [Example 91, (8S)—N-({5-[(3S)-3-(Dimethylamino)-1-pyrrolidinyl]imidazo[1,2-a]pyridin-2-yl}methyl)-N-methyl-5,6,7,8-tetrahydro-8-quinolinamine], the IC50 was below 100 nM.
With `CN(Cc1cn2c(N3CC[C@@H](N)C3)cccc2n1)[C@H]1CCCc2cccnc21` [Example 92, (8S)—N-({5-[(3R)-3-Amino-1-pyrrolidinyl]imidazo[1,2-a]pyridin-2-yl}methyl)-N-methyl-5,6,7,8-tetrahydro-8-quinolinamine], the IC50 was below 100 nM.
Next, `Cc1cccc(CN(Cc2cn3c(N4CCN(C)CC4)cccc3n2)[C@H]2CCCc3cccnc32)c1` [Example 67, (8S)—N-[(3-Methylphenyl)methyl]-N-{[5-(4-methyl-1-piperazinyl)imidazo[1,2-a]pyridin-2-yl]methyl}-5,6,7,8-tetrahydro-8-quinolinamine]: below 100 nM; `Cc1ccc(CN(Cc2cn3c(N4CCN(C)CC4)cccc3n2)[C@H]2CCCc3cccnc32)cc1` [Example 68, (8S)—N-[(4-Methylphenyl)methyl]-N-{[5-(4-methyl-1-piperazinyl)imidazo[1,2-a]pyridin-2-yl]methyl}-5,6,7,8-tetrahydro-8-quinolinamine]: below 100 nM.
Turning to `CN1CCN(c2cccc3nc(CN(CC4CC4)[C@H]4CCCc5cccnc54)cn23)CC1` [Example 57, (8S)—N-(Cyclopropylmethyl)-N-{[5-(4-methyl-1-piperazinyl)imidazo[1,2-a]pyridin-2-yl]methyl}-5,6,7,8-tetrahydro-8-quinolinamine], the IC50 was below 100 nM.
Take `CN1CCCN(c2cccc3nc(CN(C)[C@H]4CCCc5cccnc54)cn23)CC1` [Example 85, (8S)—N-Methyl-N-{[5-(4-methylhexahydro-1H-1,4-diazepin-1-yl)imidazo[1,2-a]pyridin-2-yl]methyl}-5,6,7,8-tetrahydro-8-quinolinamine]: the IC50 was below 100 nM.
With `COc1cccc(CN(Cc2cn3c(N4CCN(C)CC4)cccc3n2)[C@H]2CCCc3cccnc32)c1` [Example 73, (8S)—N-{[3-(Methyloxy)phenyl]methyl}-N-{[5-(4-methyl-1-piperazinyl)imidazo[1,2-a]pyridin-2-yl]methyl}-5,6,7,8-tetrahydro-8-quinolinamine] the figure was below 100 nM; with `CN1CCN(c2cccc3nc(CN(CCO)[C@H]4CCCc5cccnc54)cn23)CC1` [Example 78, 2-{{[5-(4-Methyl-1-piperazinyl)imidazo[1,2-a]pyridin-2-yl]methyl}[(8S)-5,6,7,8-tetrahydro-8-quinolinyl]amino}ethanol], below 100 nM; with `CN(Cc1cn2c(N3CCN4CCCC4C3)cccc2n1)[C@H]1CCCc2cccnc21` (stereo partly drawn) [Example 82, (8S)—N-{[5-(Hexahydropyrrolo[1,2-a]pyrazin-2(1H)-yl)imidazo[1,2-a]pyridin-2-yl]methyl}-N-methyl-5,6,7,8-tetrahydro-8-quinolinamine], below 100 nM.
On to `CC(C)N(Cc1cn2c(N3CCN(C)CC3)cccc2n1)[C@H]1CCCc2cccnc21` [Example 55, (8S)—N-(1-Methylethyl)-N-{[5-(4-methyl-1-piperazinyl)imidazo[1,2-a]pyridin-2-yl]methyl}-5,6,7,8-tetrahydro-8-quinolinamine], for which the IC50 was below 100 nM.
For `CN1CCN(c2cccc3nc(CN(Cc4cccc(F)c4)[C@H]4CCCc5cccnc54)cn23)CC1` [Example 61, (8S)—N-[(3-Fluorophenyl)methyl]-N-{[5-(4-methyl-1-piperazinyl)imidazo[1,2-a]pyridin-2-yl]methyl}-5,6,7,8-tetrahydro-8-quinolinamine], the IC50 was below 100 nM.
For `CN(C)[C@@H]1CCN(c2cccc3nc(CN(C)[C@H]4CCCc5cccnc54)cn23)C1` [Example 83, (8S)—N-({5-[(3R)-3-(Dimethylamino)-1-pyrrolidinyl]imidazo[1,2-a]pyridin-2-yl}methyl)-N-methyl-5,6,7,8-tetrahydro-8-quinolinamine], the IC50 was below 100 nM.
For `CN1CCCN(c2cccc3nc(CN(C)C4CCCc5cccnc54)cn23)CC1` (stereo not drawn) [Example 31, N-Methyl-N-{[5-(4-methylhexahydro-1H-1,4-diazepin-1-yl)imidazo[1,2-a]pyridin-2-yl]methyl}-5,6,7,8-tetrahydro-8-quinolinamine], the IC50 was below 100 nM.
For `CN1CCN(c2cccc3nc(CN(Cc4cccc(C(F)(F)F)c4)[C@H]4CCCc5cccnc54)cn23)CC1` [Example 70, (8S)—N-{[5-(4-Methyl-1-piperazinyl)imidazo[1,2-a]pyridin-2-yl]methyl}-N-{[3-(trifluoromethyl)phenyl]methyl}-5,6,7,8-tetrahydro-8-quinolinamine], the IC50 is below 100 nM.
Next, `CCN(Cc1cn2c(N3CC[C@@H](N(C)C)C3)cccc2n1)[C@H]1CCCc2cccnc21` [Example 96, (8S)—N-({5-[(3R)-3-(Dimethylamino)-1-pyrrolidinyl]imidazo[1,2-a]pyridin-2-yl}methyl)-N-ethyl-5,6,7,8-tetrahydro-8-quinolinamine]: below 100 nM; `CN1CCN(c2cccc3nc(CN(C)C4CCc5cccnc54)cn23)CC1` (stereo not drawn) [Example 46, N-Methyl-N-{[5-(4-methyl-1-piperazinyl)imidazo[1,2-a]pyridin-2-yl]methyl}-6,7-dihydro-5H-cyclopenta[b]pyridin-7-amine]: below 100 nM; `CN1CCC(N(C)c2cccc3nc(CN(C)C4CCCc5cccnc54)cn23)C1` (stereo not drawn) [Example 29, N-Methyl-N-({5-[methyl(1-methyl-3-pyrrolidinyl)amino]imidazo[1,2-a]pyridin-2-yl}methyl)-5,6,7,8-tetrahydro-8-quinolinamine]: below 100 nM.
With `CCCN(Cc1cn2c(N3CC[C@@H](N(C)C)C3)cccc2n1)[C@H]1CCCc2cccnc21` [Example 97, (8S)—N-({5-[(3R)-3-(Dimethylamino)-1-pyrrolidinyl]imidazo[1,2-a]pyridin-2-yl}methyl)-N-propyl-5,6,7,8-tetrahydro-8-quinolinamine], the IC50 was below 100 nM.
Regarding `CN1CCN(c2cccc3nc(CN(Cc4ccccc4)[C@H]4CCCc5cccnc54)cn23)CC1` [Example 59, (8S)—N-{[5-(4-Methyl-1-piperazinyl)imidazo[1,2-a]pyridin-2-yl]methyl}-N-(phenylmethyl)-5,6,7,8-tetrahydro-8-quinolinamine], the IC50 is below 100 nM.
As to `CN(Cc1cn2c(N3CC[C@H](N(C)C)C3)cccc2n1)C1CCCc2cccnc21` (stereo partly drawn) [Example 24, N-({5-[(3S)-3-(Dimethylamino)-1-pyrrolidinyl]imidazo[1,2-a]pyridin-2-yl}methyl)-N-methyl-5,6,7,8-tetrahydro-8-quinolinamine], the IC50 was below 100 nM.
In the case of `CN1CCN(c2cccc3nc(CN(Cc4ccccc4C(F)(F)F)[C@H]4CCCc5cccnc54)cn23)CC1` [Example 69, (8S)—N-{[5-(4-Methyl-1-piperazinyl)imidazo[1,2-a]pyridin-2-yl]methyl}-N-{[2-(trifluoromethyl)phenyl]methyl}-5,6,7,8-tetrahydro-8-quinolinamine], the IC50 was 100 to 500 nM.
On to `CN(C)CCN1CCN(c2cccc3nc(CN(C)C4CCCc5cccnc54)cn23)CC1` (stereo not drawn) [Example 32, N-[(5-{4-[2-(Dimethylamino)ethyl]-1-piperazinyl}imidazo[1,2-a]pyridin-2-yl)methyl]-N-methyl-5,6,7,8-tetrahydro-8-quinolinamine], for which the IC50 lay within 100 to 500 nM.
Next, `CN(Cc1cn2c(N3CC[C@@H](N)C3)cccc2n1)C1CCCc2cccnc21` (stereo partly drawn) [Example 27, N-({5-[(3R)-3-Amino-1-pyrrolidinyl]imidazo[1,2-a]pyridin-2-yl}methyl)-N-methyl-5,6,7,8-tetrahydro-8-quinolinamine]: below 100 nM.
For `CN(C)Cc1cccc(-c2cccc3nc(CN(C)C4CCCc5cccnc54)cn23)c1` (stereo not drawn) [Example 41, N-[(5-{3-[(Dimethylamino)methyl]phenyl}imidazo[1,2-a]pyridin-2-yl)methyl]-N-methyl-5,6,7,8-tetrahydro-8-quinolinamine], the IC50 is 100 to 500 nM.
On to `CN(Cc1cn2c(N3CCCNCC3)cccc2n1)C1CCCc2cccnc21` (stereo not drawn) [Example 30, N-{[5-(Hexahydro-1H-1,4-diazepin-1-yl)imidazo[1,2-a]pyridin-2-yl]methyl}-N-methyl-5,6,7,8-tetrahydro-8-quinolinamine], for which the IC50 was below 100 nM.
As for `CC(C)N(Cc1cn2c(N3CCNCC3)cccc2n1)C1CCCc2cccnc21` (stereo not drawn) [Example 21, N-(1-Methylethyl)-N-{[5-(1-piperazinyl)imidazo[1,2-a]pyridin-2-yl]methyl}-5,6,7,8-tetrahydro-8-quinolinamine], the IC50 was below 100 nM.
With `CCN(Cc1cn2c(N3CCN(C)CC3)cccc2n1)[C@H]1CCCc2cccnc21` [Example 54, (8S)—N-Ethyl-N-{[5-(4-methyl-1-piperazinyl)imidazo[1,2-a]pyridin-2-yl]methyl}-5,6,7,8-tetrahydro-8-quinolinamine], the IC50 was below 100 nM.
